Data on three compounds can be found in US5763485A, “Method of treating catabolic, gut-associated pathological processes and impaired host defenses” (Brigham and Women's Hospital, priority 1995, dated 1998).

A short description of series [1]: Parenteral nutrition after 5-FU injury in rats: intestinal and hematological indices. Type of series: in vivo. The following applies: all drug-treated animals, independent of diet.
Protocol: Rats were catheterized as previously described and after a minimum of 3 hr following recovery from anesthesia, groups of animals received 100, 150 or 200 mg/kg of 5-FU by i.p. injection. […] The nutrition infusion, started 4 hr after 5-FU or saline, was continued for 4 d. at a rate of 46 ml/24 hr.
Blood and intestinal tissue were sampled and prepared for analysis as described in the examples above. The hemoglobin, white blood cell and platelet numbers were determined as measures of the general hematological toxicity of the various doses of 5-FU.
All analyses were performed as previously described in Examples 6 and 7. Statistical analyses were performed using two-way analysis of variance comparing both diets and dose of 5-FU. Unpaired t tests were used to compare two treatment groups at one dose of 5-FU. Differences were considered statistically significant at a p value of <0.05.
The conditions of series [2]: rat. The method, then:
Lactulose is a non-metabolizable sugar that is poorly absorbed from the gastrointestinal tract. In gastrointestinal disorders such as inflammatory bowel disease, lactulose is taken up through gaps in the mucosal membrane, allowing its excretion in the urine. The amount of urinary lactulose is therefore a measure of "leakage" across the gut mucosal barrier (Menzies, Biochem. Soc. Trans. […]:1042-1047 (1974)).
Rats were treated with 5-fluorouracil as described in Example 8, above. Lactulose, 2 ml iso-osmolar solution of 100 mg/ml, was infused by gavage and urine was collected over the subsequent 24 hr and frozen. Urinary lactulose was determined enzymatically as described by Ziegler et al. (Arch. Surg. 123:1313-1319 (1988)).

Series [3] in a line: Urinary excretion and nitrogen balance after laparotomy in dogs. Type of series: in vivo, dog. The following applies: projected intake 0.312 gm N/24 hr/kg.
Protocol: Urine excreted during the 24 hours of infusion was collected in the closed urinary collecting system and stored in acidified, refrigerated containers. Aliquots were stored frozen at -20° C. for batch analysis.
All solutions were infused at the rate of 4 ml/minute/kg. Five control animals received 0.9% saline. Amino acid solutions (Table V) containing BCCA's at three different concentrations (11%, 22%, or 44% of total amino acids) were prepared by adding amino acids to an 8.5% standard amino acid formula, FreAmine III (American McGaw, Irvine, Calif.). The total BCAA infusion rates were 0.46, 0.92, and 1.84 grams/24 hours/kg, respectively. All three amino acid solutions were isonitrogenous, providing approximately 0.624 grams of nitrogen/24 hours/kg, with a constant ratio of valine to leucine to isoleucine (1: 1.38:1.05). Nine animals received an 11% BCAA solution which was made by dissolving a mixture of non-essential amino acids (NEAA) in 2.13% FreAmine III to make a solution that provided 0.624 grams of nitrogen/24 hours/kg. […] Six animals received 4.25% FreAmine III alone (22% BCAA). The final seven animals received 2.13% FreAmine III supplemented with enough BCAA's to make a 44% solution. […] All solutions were sterilized by passage through a 0.22 uM filter (Millipore, Millis, Mass.) and stored overnight at 4° C. prior to administration. […]
The conditions of series [4]: intravenous feeding regimen; cited from earlier work.

Residues, ends and D or L forms follow the SMILES beside them.

As for `O=c1[nH]cc(F)c(=O)[nH]1` [5-FU, 5-fluorouracil], the “Circulating white blood cell and platelet counts” value in series [1] is “marked decline in the circulating white blood cell and platelet counts”. Also, in series [2], the “Gut permeability to lactulose” value is recorded as “increase gut permeability to lactulose”; the “Time of peak increase in gut permeability” value was “between 24 and 48”.

In series [3], `NC(=O)CC[C@H](N)C(=O)O` [Glutamine, glutamine] came in with a Nitrogen balance of -0.386 ± 0.086 gm/24 hr/kg and a Nitrogen excretion of 0.709 ± 0.085 gm/24 hr/kg.

For `C[C@H](N)C(=O)N[C@@H](CCC(N)=O)C(=O)O` [L-alanyl-L-glutamine] (H-Ala-Gln-OH), the Postoperative nitrogen balance entry in series [4] is given as “improve postoperative nitrogen balance”.
